≈ marks a conversion by molar mass, not a printed value. Structures can show the parent of a compound that is named as a salt.
Key:
HepG2 = assay: Antiproliferative activity against human HepG2 cells assessed as inhibition of cell proliferation incubated for 48 hrs by CCK-8 assay; format: functional, cell-based; conditions: HepG2, 48 h
A549 = assay: Antiproliferative activity against human A549 cells assessed as inhibition of cell proliferation incubated for 48 hrs by CCK-8 assay; format: functional, cell-based; conditions: A549, 48 h
MDA-MB-231 [1] = assay: Antiproliferative activity against human MDA-MB-231 cells assessed as inhibition of cell proliferation incubated for 48 hrs by CCK-8 assay; format: functional, cell-based; conditions: MDA-MB-231, 48 h
[2] = Toxicity in female Balb/c mouse implanted with mouse 4T1 cells assessed as appearance of tumor metastasis in lung at 10 mg/kg, ip administered once every 2 days for 14 days by H and E staining based analysis; format: organism-based; conditions: in vivo, 336 h, time 14 day
[3] = Toxicity in female Balb/c mouse implanted with mouse 4T1 cells assessed as appearance of tumor metastasis in spleen at 10 mg/kg, ip administered once every 2 days for 14 days by H and E staining based analysis; format: organism-based; conditions: in vivo, 336 h, time 14 day
[4] = Toxicity in female Balb/c mouse implanted with mouse 4T1 cells assessed as change in body weight at 10 mg/kg, ip administered every 2 days; format: organism-based; conditions: in vivo, 48 h
[5] = Toxicity in female Balb/c mouse implanted with mouse 4T1 cells assessed as appearance of tumor metastasis in liver at 10 mg/kg, ip administered once every 2 days for 14 days by H and E staining based analysis; format: organism-based; conditions: in vivo, 336 h, time 14 day
[6] = Toxicity in female Balb/c mouse implanted with mouse 4T1 cells assessed as appearance of tumor metastasis in kidney at 10 mg/kg, ip administered once every 2 days for 14 days by H and E staining based analysis; format: organism-based; conditions: in vivo, 336 h, time 14 day
[7] = Toxicity in female Balb/c mouse implanted with mouse 4T1 cells assessed as appearance of infiltered tumor cells in adipose tissue at 10 mg/kg, ip administered once every 2 days for 14 days by H and E staining based analysis; format: organism-based; conditions: in vivo, 336 h, time 14 day
[8] = Toxicity in female Balb/c mouse implanted with mouse 4T1 cells assessed as appearance of spleen wrinkling at 10 mg/kg, ip administered once every 2 days for 14 days; format: organism-based; conditions: in vivo, 48 h, time 2 day
[9] = Toxicity in female Balb/c mouse implanted with mouse 4T1 cells assessed as appearance of irregular necrotic foci in tumor area at 10 mg/kg, ip administered once every 2 days for 14 days by H and E staining based analysis; format: organism-based; conditions: in vivo, 336 h, time 14 day
[10] = Solubility of compound in water; format: physicochemical
[11] = Solubility of compound in 0.1 M HCL; format: physicochemical
MDA-MB-231 [12] = assay: Induction of apoptosis in human MDA-MB-231 cells assessed as viable cells at 1 uM incubated for 24 hrs by Annexin-V/PI staining based flow cytometric analysis (reference value: 93.37%); format: functional; conditions: read-out: Activity
MDA-MB-231 [13] = assay: Induction of cell cycle arrest in human MDA-MB-231 cells assessed as accumulation of cells at G0/G1 phase at 1 uM incubated for 24 hrs by PI staining based flow cytometric analysis (reference value: 57.31%); format: functional
MDA-MB-231 [14] = assay: Induction of cell cycle arrest in human MDA-MB-231 cells assessed as accumulation of cells at S phase at 1 uM incubated for 24 hrs by PI staining based flow cytometric analysis (reference value: 8.71%); format: functional
MDA-MB-231 [15] = assay: Induction of cell cycle arrest in human MDA-MB-231 cells assessed as accumulation of cells at G2/M phase at 1 uM incubated for 24 hrs by PI staining based flow cytometric analysis (reference value: 33.98%); format: functional
MDA-MB-231 [16] = assay: Induction of apoptosis in human MDA-MB-231 cells assessed as necrotic cells at 1 uM incubated for 24 hrs by Annexin-V/PI staining based flow cytometric analysis (reference value: 0.71%); format: functional
MDA-MB-231 [17] = assay: Induction of apoptosis in human MDA-MB-231 cells assessed as early apoptotic cells at 1 uM incubated for 24 hrs by Annexin-V/PI staining based flow cytometric analysis (reference value: 2.69%); format: functional
MDA-MB-231 [18] = assay: Induction of apoptosis in human MDA-MB-231 cells assessed as late apoptotic cells at 1 uM incubated for 24 hrs by Annexin-V/PI staining based flow cytometric analysis (reference value: 3.24%); format: functional

| IC50 (HepG2) | IC50 (A549) | IC50 (MDA-MB-231 [1]) | Compound | other results |
| --- | --- | --- | --- | --- |
| 13.1 µM | 13.8 µM | 10.2 µM | Cc1[nH]c2ccccc2c1C1=C(NCCNC(=O)OC(C)(C)C)C(=O)C(F)=C(NCCNC(=O)OC(C)(C)C)C1=O | – |
| – | 0.3 µM | 2.34 µM | COc1cccc2c1C(=O)c1c(O)c3c(c(O)c1C2=O)C[C@@](O)(C(=O)CO)C[C@@H]3O[C@H]1C[C@H](N)[C@H](O)[C@H](C)O1 [DOXORUBICIN HYDROCHLORIDE] | Activity [2]: Toxic; Activity [3]: Toxic; Activity [4]: Toxic; Activity [5]: Toxic; Activity [6]: Toxic; Activity [7]: Toxic; Activity [8]: Toxic; Activity [9]: Toxic |
| 8.15 µM | 12.5 µM | 4.65 µM | Cc1[nH]c2ccccc2c1C1=C(F)C(=O)C(F)=C(N2CCNCC2)C1=O | – |
| 11.3 µM | 15.7 µM | 10.8 µM | Cc1[nH]c2ccccc2c1C1=C(F)C(=O)C(c2c(C)[nH]c3ccccc23)=C(F)C1=O | – |
| 50.6 µM | > 100 µM | 7.82 µM | C#CCNC1=C(F)C(=O)C(c2c(C)[nH]c3ccccc23)=C(F)C1=O | – |
| – | – | – | Cc1[nH]c2ccccc2c1C1=C(Cl)C(=O)C(Cl)=C(N2CCOCC2)C1=O | solubility [10]: 9 µg/mL (≈ 23 µM); solubility [11]: 6 µg/mL (≈ 15.3 µM) |
| 8.13 µM | 12.1 µM | 7.4 µM | Cc1[nH]c2ccccc2c1C1=C(N2CCN(C=O)CC2)C(=O)C(F)=C(N2CCN(C=O)CC2)C1=O | – |
| 5.43 µM | 53.1 µM | 8 µM | Cc1[nH]c2ccccc2c1C1=C(F)C(=O)C(F)=C(N2CCN(C=O)CC2)C1=O | – |
| – | – | – | COc1ccc(/C=C\c2cc(OC)c(OC)c(OC)c2)cc1O [COMBRETASTATIN A4] | viability at 1 µM (MDA-MB-231 [12]): 79.8%; Activity (MDA-MB-231 [13]): 39.37%; Activity (MDA-MB-231 [14]): 9.19%; Activity (MDA-MB-231 [15]): 55.89%; Activity (MDA-MB-231 [16]): 1.55%; Activity (MDA-MB-231 [17]): 10.22%; Activity (MDA-MB-231 [18]): 8.43% |
| 4.22 µM | 6.8 µM | 4.41 µM | Cc1[nH]c2ccccc2c1C1=C(N2CCCCC2)C(=O)C(F)=C(N2CCCCC2)C1=O | – |
| 7.78 µM | 14.2 µM | 4.27 µM | Cc1[nH]c2ccccc2c1C1=C(F)C(=O)C(N2CCOCC2)=C(F)C1=O | – |
| 4.91 µM | 4.76 µM | 7.18 µM | Cc1[nH]c2ccccc2c1C1=C(F)C(=O)C(F)=C(NCCNC(=O)OC(C)(C)C)C1=O | – |
| 11.3 µM | 10.8 µM | > 100 µM | Cc1[nH]c2ccccc2c1C1=C(N2CCOCC2)C(=O)C(c2c(C)[nH]c3ccccc23)=C(N2CCOCC2)C1=O | – |
| 4.19 µM | 4.93 µM | 5.49 µM | Cc1[nH]c2ccccc2c1C1=C(NC2CC2)C(=O)C(F)=C(NC2CC2)C1=O | – |
| 61.4 µM | > 100 µM | 13.5 µM | COC(=O)/C=C/C(=O)OCCCN1CCN(C2=C(F)C(=O)C(c3c(C)[nH]c4ccccc34)=C(N3CCN(CCCOC(=O)/C=C/C(=O)OC)CC3)C2=O)CC1 | – |
| 16.1 µM | 15.4 µM | 8.16 µM | Cc1[nH]c2ccccc2c1C1=C(N2CCOCC2)C(=O)C(F)=C(N2CCOCC2)C1=O | – |
| 4.44 µM | 7.02 µM | 12 µM | COC(=O)/C=C/OCCNC1=C(F)C(=O)C(c2c(C)[nH]c3ccccc23)=C(NCCOC(=O)/C=C/C(=O)OC)C1=O | – |
| 14.2 µM | 5.21 µM | 15.5 µM | C#CCNC1=C(F)C(=O)C(NCC#C)=C(c2c(C)[nH]c3ccccc23)C1=O | – |
| 25 µM | 6.31 µM | 6.47 µM | COC(=O)/C=C/C(=O)OCCNC1=C(F)C(=O)C(c2c(C)[nH]c3ccccc23)=C(F)C1=O | – |
| 4.6 µM | 6.79 µM | 6.97 µM | COC(=O)/C=C/C(=O)OCCCN1CCN(C2=C(F)C(=O)C(F)=C(c3c(C)[nH]c4ccccc34)C2=O)CC1 | – |
| 6.43 µM | > 100 µM | 6.14 µM | C#CCNC1=C(F)C(=O)C(F)=C(c2c(C)[nH]c3ccccc23)C1=O | – |
| 10.5 µM | 4.46 µM | 7.96 µM | Cc1[nH]c2ccccc2c1C1=C(F)C(=O)C(F)=C(NC2CC2)C1=O | – |
| 14.5 µM | 32.9 µM | 8.26 µM | Cc1[nH]c2ccccc2c1C1=C(F)C(=O)C(F)=C(N2CCCCC2)C1=O | – |
| 12.4 µM | 10.2 µM | 8.9 µM | Cc1[nH]c2ccccc2c1C1=C(F)C(=O)C(c2c(C)[nH]c3ccccc23)=C(N2CCOCC2)C1=O | – |
| 12.4 µM | 14.2 µM | 8.57 µM | Cc1[nH]c2ccccc2c1C1=C(F)C(=O)C(F)=C(F)C1=O | – |

Source: ChEMBL document CHEMBL6114979, “Discovery of 3-indolylbenzoquinone derivatives with therapeutic potential for breast cancer” (Bioorg Med Chem, 2025)
